Test results as given in PubChem BioAssay AID248 (DTP/NCI, 2004).
Several values for one entry are separate records, joined by “and”; a condition that tells them apart may be missing. Equal entries are not always repeated. Toxic doses and inconclusive results are not listed.

Test system: L1210 leukemia ip in BDF1 mice, survival T/C
Assay: NCI In Vivo Anticancer Drug Screen. Data for tumor model L1210 Leukemia (intraperitoneal) in B6D2F1 (BDF1) mice
Details: higher = longer survival
Method in brief: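 In this screen, tumor-bearing mice given compound are compared to those given vehicle, and their survival values are reported as a treated-to-control quotient.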

`NC(C/[N+]([O-])=N/O)C(=O)O` (stereo not drawn) was tested, and the T/C (endpoint: mean survival time, dose: 200.0 mg/kg/injection, schedule: Q01DX001 (ip), vehicle: carboxymethylcellulose (CMC)) was 124 % of control, the T/C (endpoint: mean survival time, dose: 200.0 mg/kg/injection, schedule: Q01DX003 (ip), vehicle: sodium bicarbonate) was 164 % of control and the T/C (endpoint: mean survival time, dose: 200.0 mg/kg/injection, schedule: Q01DX009 (ip), vehicle: saline) was 102 % of control. For the same molecule, the T/C (endpoint: mean survival time, dose: 256.0 mg/kg/injection, schedule: Q01DX001 (ip), vehicle: saline) was 117 % of control, the T/C (endpoint: mean survival time, dose: 256.0 mg/kg/injection, schedule: Q01DX001 (oral), vehicle: saline) was 103 % of control and the T/C (endpoint: mean survival time, dose: 256.0 mg/kg/injection, schedule: Q01DX001 (sc), vehicle: saline) was 108 % of control. For the same molecule, the T/C (endpoint: mean survival time, dose: 256.0 mg/kg/injection, schedule: Q01DX009 (ip), vehicle: saline) was 95 % of control, the T/C (endpoint: mean survival time, dose: 256.0 mg/kg/injection, schedule: Q08DX002 (ip), vehicle: saline) was 121 % of control and the T/C (endpoint: mean survival time, dose: 266.0 mg/kg/injection, schedule: Q04DX003 (ip), vehicle: saline with Tween-80) was 115 % of control. The T/C (endpoint: mean survival time, dose: 400.0 mg/kg/injection, schedule: Q01DX003 (ip), vehicle: sodium bicarbonate) was 172 % of control, the T/C (endpoint: mean survival time, dose: 400.0 mg/kg/injection, schedule: Q04DX003 (ip), vehicle: Klucel (hydroxypropylcellulose) (HPC)) was 151 % of control and the T/C (endpoint: mean survival time, dose: 512.0 mg/kg/injection, schedule: Q01DX001 (ip), vehicle: saline) was 117 % of control. The T/C (endpoint: mean survival time, dose: 512.0 mg/kg/injection, schedule: Q01DX001 (oral), vehicle: saline) was 97 % of control, the T/C (endpoint: mean survival time, dose: 512.0 mg/kg/injection, schedule: Q01DX001 (sc), vehicle: saline) was 106 % of control and the T/C (endpoint: mean survival time, dose: 600.0 mg/kg/injection, schedule: Q01DX003 (ip), vehicle: sodium bicarbonate) was 172 % of control. For the same molecule, the T/C (endpoint: mean survival time, dose: 600.0 mg/kg/injection, schedule: Q04DX003 (ip), vehicle: saline with Tween-80) was 121 % of control, the T/C (endpoint: mean survival time, dose: 600.0 mg/kg/injection, schedule: Q04DX003 (ip), vehicle: saline) was 161 % of control and 159 % of control and the T/C (endpoint: mean survival time, dose: 800.0 mg/kg/injection, schedule: Q01DX003 (ip), vehicle: sodium bicarbonate) was 175 % of control. For the same molecule, the T/C (endpoint: mean survival time, dose: 800.0 mg/kg/injection, schedule: Q04DX003 (ip), vehicle: Klucel (hydroxypropylcellulose) (HPC)) was 106 % of control, the T/C (endpoint: mean survival time, dose: 800.0 mg/kg/injection, schedule: Q04DX003 (ip), vehicle: saline with Tween-80) was 154 % of control and the T/C (endpoint: mean survival time, dose: 1000.0 mg/kg/injection, schedule: Q01DX003 (ip), vehicle: sodium bicarbonate) was 96 % of control. For the same molecule, the T/C (endpoint: mean survival time, dose: 1000.0 mg/kg/injection, schedule: Q04DX003 (ip), vehicle: saline with Tween-80) was 92 % of control, the T/C (endpoint: mean survival time, dose: 1024.0 mg/kg/injection, schedule: Q01DX001 (sc), vehicle: saline) was 110 % of control and the T/C (endpoint: mean survival time, dose: 1024.0 mg/kg/injection, schedule: Q04DX003 (ip), vehicle: saline) was 150 % of control. The T/C (endpoint: median survival time, dose: 8.0 mg/kg/injection, schedule: Q01DX009 (ip), vehicle: saline) was 105 % of control, the T/C (endpoint: median survival time, dose: 8.0 mg/kg/injection, schedule: Q01DX009 (oral), vehicle: saline) was 100 % of control and the T/C (endpoint: median survival time, dose: 8.0 mg/kg/injection, schedule: Q01DX009 (sc), vehicle: saline) was 105 % of control. The T/C (endpoint: median survival time, dose: 16.0 mg/kg/injection, schedule: Q01DX009 (oral), vehicle: saline) was 100 % of control, the T/C (endpoint: median survival time, dose: 16.0 mg/kg/injection, schedule: Q01DX009 (sc), vehicle: saline) was 100 % of control and 105 % of control and the T/C (endpoint: median survival time, dose: 32.0 mg/kg/injection, schedule: Q01DX009 (oral), vehicle: saline) was 111 % of control. For the same molecule, the T/C (endpoint: median survival time, dose: 32.0 mg/kg/injection, schedule: Q01DX009 (sc), vehicle: saline) was 111 % of control, the T/C (endpoint: median survival time, dose: 64.0 mg/kg/injection, schedule: Q01DX009 (ip), vehicle: saline) was 100 % of control and 111 % of control and the T/C (endpoint: median survival time, dose: 64.0 mg/kg/injection, schedule: Q04DX003 (ip), vehicle: saline) was 105 % of control. The T/C (endpoint: median survival time, dose: 64.0 mg/kg/injection, schedule: Q04DX003 (oral), vehicle: saline) was 100 % of control, the T/C (endpoint: median survival time, dose: 100.0 mg/kg/injection, schedule: Q04DX003 (ip), vehicle: saline) was 116 % of control and 100 % of control and the T/C (endpoint: median survival time, dose: 128.0 mg/kg/injection, schedule: Q01DX009 (ip), vehicle: saline) was 100 % of control. The T/C (endpoint: median survival time, dose: 128.0 mg/kg/injection, schedule: Q01DX009 (sc), vehicle: saline) was 105 % of control, the T/C (endpoint: median survival time, dose: 128.0 mg/kg/injection, schedule: Q04DX003 (oral), vehicle: saline) was 100 % of control and the T/C (endpoint: median survival time, dose: 200.0 mg/kg/injection, schedule: Q04DX003 (ip), vehicle: saline) was 111 % of control. For the same molecule, the T/C (endpoint: median survival time, dose: 400.0 mg/kg/injection, schedule: Q04DX003 (ip), vehicle: saline) was 116 % of control, the T/C (endpoint: median survival time, dose: 1000.0 mg/kg/injection, schedule: Q04DX003 (ip), vehicle: saline) was 155 % of control and the T/C (endpoint: median survival time, dose: 1024.0 mg/kg/injection, schedule: Q04DX003 (ip), vehicle: saline) was 111 % of control. The T/C (endpoint: median survival time, dose: 1024.0 mg/kg/injection, schedule: Q04DX003 (sc), vehicle: saline) was 94 % of control.
